Measured values from patent publication US20250304353A1, “ANTIMICROBIAL BOTTLE WITH ANTIMICROBIAL SEAL” (Microban Products Company, priority 2017, published 2025).

Tested on: Aspergillus niger
Assay: Anti-fungal efficacy of polypropylene cap, agar plate method AATCC 30 Part 3 (2017e)
Format: cell-based
Settings: injection molded polypropylene cap with 2.0 wt % Microban IF1-5033-050 (0.1 wt % thiabendazole); MEA plates, up to 7 days at about 30° C.; two replicate sub-samples
Description: The anti-fungal efficacy of the polypropylene cap containing thiabendazole was tested. The fungicidal activity was determined using the agar plate method AATCC 30 Part 3 (2017e). Individual plates of Malt Extract Agar (MEA) were inoculated with Aspergillus niger from primary stock cultures held at about 2° C. to about 8° C. and then incubated at about 30° C.±2° C. for up to 7 days to produce mature spores. A spore suspension was prepared from the plates in 10 mL aliquots of sterile distilled water (SDW) and filtered using glass wool. The spore suspension was adjusted using SDW so that it contained ≥10^5 spores mL^−1. Two replicate sub-samples (i.e., the polypropylene cap with thiabendazole) were placed on the surface of individual MEA plates. A 100 μL aliquot of the spore suspension of Aspergillus niger was spread over the surface of both the sub-sample and the surrounding media. The sample plates were incubated for up to 7 days at about 30° C.±2° C. […] An injection molded polypropylene cap treated with 2.0 wt % of Microban IF1-5033-050 (i.e., 0.1 wt % of thiabendazole) was tested with Aspergillus niger.

## c1ccc2[nH]c(-c3cscn3)nc2c1 [thiabendazole]
  fungal growth (microscopic and/or macroscopic) on sub-sample and surrounding media: No surface growth
